Key:
Format in all cases: in vivo
[1] = tested on: SETARIA VIRIDIS, (L) BEAU; experiment: Postemergence herbicidal evaluation, SETVI (Foxtail, Green); set-up: key to SETVI rating / Herbicidal effect rating, SETVI / SETVI: 0-9 visual rating scale vs untreated control
Procedure, shortened: (§1)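 Two-week-old seedlings sprayed with compound in 50/50 acetone/water plus 0.5% TWEEN 20 at about 0.125–0.500 kg/ha via nozzle at 40 psi. Kept in greenhouse; rated visually 4–5 weeks after treatment on a 0–9 scale versus untreated control, averaging repeat tests.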

[2] = tested on: GLYCINE MAX(L) MERR. CV. WILLIAMS; experiment: Preemergence herbicidal evaluation, GLXMAW (Soybean, Williams); details: rated four to five weeks after treatment
Procedure, shortened: (§2)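 Seeds mixed with potting soil were planted on about one inch of soil in cups, then sprayed with aqueous acetone solution of test compound at about 0.125 to 0.50 kg per hectare. Plants grown under greenhouse conditions; visual rating on a 0-9 scale versus untreated control at 4-5 weeks.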

IPOMOEA SPP. = experiment: Postemergence herbicidal evaluation, IPOSS (Morningglory spp.)
Procedure, shortened: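 Seedlings of morningglory (Ipomoea spp.) were raised in jiffy flats for roughly two weeks. They were then sprayed postemergence through a nozzle at 40 psi with test compound dispersed in 50/50 acetone/water containing 0.5% TWEEN®20 surfactant. Plants were kept on greenhouse benches under standard care and visually rated 0-9 against controls four to five weeks after treatment.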

CASSIA OBTUSIFOLIA, L. [3] = experiment: Postemergence herbicidal evaluation, CASOB (Sicklepod); set-up: key to CASOB rating / Herbicidal effect rating, CASOB / CASOB: 0-9 visual rating scale vs untreated control
Procedure, shortened: as §1

ZEA MAYS L. = experiment: Preemergence herbicidal evaluation, ZEAMX (Corn, Field); details: rated four to five weeks after treatment
Procedure, shortened: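 Corn (Zea mays) seeds were mixed with potting soil and planted on about one inch of soil in pint cups, then treated preemergence. Cups were kept on greenhouse benches, watered and maintained conventionally, and after four to five weeks were visually rated on a 0-9 scale versus an untreated control.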

CHENOPODIUM ALBUM, L. [4] = experiment: Preemergence herbicidal evaluation, CHEAL (Lambsquarters, Common); details: rated four to five weeks after treatment
Procedure, shortened: as §2

CHENOPODIUM ALBUM, L. [5] = experiment: Postemergence herbicidal evaluation, CHEAL (Lambsquarters, Common)
Procedure, shortened: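 Seedlings of common lambsquarters (Chenopodium album) were raised in jiffy flats for roughly two weeks, then sprayed postemergence through a nozzle at 40 psi with test compound dispersed in 50/50 acetone/water containing 0.5% TWEEN®20 surfactant. Plants were kept on greenhouse benches under standard care and rated visually on a 0-9 scale versus controls.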

[6] = tested on: ORYZA SATIVA, L. TEBONNET; experiment: Rice tolerance to post-transplant applications under flooded paddy conditions, ORYSAT (Rice, Tebonnet); details: post-transplant rice, 3-4 weeks after treatment
Procedure, shortened: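 Two ten-day-old Tebonnet rice seedlings transplanted into silt loam, flooded 1.5–3 cm; three days later the water surface treated with compounds in acetone/water at about 0.5, 0.25, 0.125 and 0.063 kg/ha. Visual 0–9 injury rating versus control after 3–4 weeks in greenhouse.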

[7] = tested on: ORYZA SATIVA, L. TEBONNET; experiment: Preemergence herbicidal evaluation, ORYSAT (Rice, Tebonnet); details: rated four to five weeks after treatment
Description: Results of herbicide evaluation are expressed on a rating scale (0-9). The scale is based upon a visual observation of plant stand, vigor, malformation, size, chlorosis and overall plant appearance as compared with a control.
The preemergence herbicidal activity of the test compounds of the present invention is exemplified by the following tests in which the seeds of a variety of monocotyledonous and dicotyledonous plants are separately mixed with potting soil and planted on top of approximately one inch of soil in separate pint cups. […] The treated cups are then placed on greenhouse benches, watered and cared for in accordance with conventional greenhouse procedures. From four to five weeks after treatment, the tests are terminated and each cup is examined and rated according to the rating system provided in Example 40.
The compounds evaluated are reported by compound number given in Example 40.

[8] = tested on: TRITICUM AESTIVUM, CV. APOLLO; experiment: Preemergence herbicidal evaluation, TRZAWO (Wheat, Winter, CV. APOLLO); details: rated four to five weeks after treatment
Procedure, shortened: as §2

[9] = tested on: AMBROSIA ARTEMISIIFOLIA, L.; experiment: Preemergence herbicidal evaluation, AMBEL (Ragweed, Common); details: rated four to five weeks after treatment
Procedure, shortened: as §2

CASSIA OBTUSIFOLIA, L. [10] = experiment: Preemergence herbicidal evaluation, CASOB (Sicklepod); details: Rate 0.500 kg/ha, rated four to five weeks after treatment
Procedure, shortened: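 Seeds of various monocot and dicot plants, including sicklepod, were each mixed with potting soil and sown on roughly one inch of soil in separate pint cups for preemergence testing. Treated cups were kept on greenhouse benches, watered and maintained conventionally. Four to five weeks after treatment, each cup was visually rated on a 0-9 scale against a control.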

SMILES: CC(C)OC(=O)Cn1c(=O)n(C)c(=O)n(-c2cc(Oc3ncc(C(F)(F)F)cc3Cl)ccc2Br)c1=O [Compound 44]
- SETVI rating ([1]; Rate 0.125 kg/ha): 9.0
- SETVI rating ([1]; Rate 0.250 kg/ha): 9.0
- SETVI rating ([1]; Rate 0.500 kg/ha): 9.0
- GLXMAW herbicidal rating ([2]; Rate 0.125 kg/ha): 0.0
- GLXMAW herbicidal rating ([2]; Rate 0.250 kg/ha): 0.0
- GLXMAW herbicidal rating ([2]; Rate 0.500 kg/ha): 0.0
- IPOSS rating (IPOMOEA SPP.; Rate 0.125 kg/ha): 9.0
- IPOSS rating (IPOMOEA SPP.; Rate 0.250 kg/ha): 9.0
- IPOSS rating (IPOMOEA SPP.; Rate 0.500 kg/ha): 9.0
- CASOB rating (CASSIA OBTUSIFOLIA, L. [3]; Rate 0.125 kg/ha): 9.0
- CASOB rating (CASSIA OBTUSIFOLIA, L. [3]; Rate 0.250 kg/ha): 9.0
- CASOB rating (CASSIA OBTUSIFOLIA, L. [3]; Rate 0.500 kg/ha): 9.0
- ZEAMX herbicidal rating (ZEA MAYS L.; Rate 0.125 kg/ha): 0.0
- ZEAMX herbicidal rating (ZEA MAYS L.; Rate 0.250 kg/ha): 0.0
- ZEAMX herbicidal rating (ZEA MAYS L.; Rate 0.500 kg/ha): 0.0
- CHEAL herbicidal rating (CHENOPODIUM ALBUM, L. [4]; Rate 0.125 kg/ha): 9.0
- CHEAL herbicidal rating (CHENOPODIUM ALBUM, L. [4]; Rate 0.250 kg/ha): 9.0
- CHEAL herbicidal rating (CHENOPODIUM ALBUM, L. [4]; Rate 0.500 kg/ha): 9.0
- CHEAL rating (CHENOPODIUM ALBUM, L. [5]; Rate 0.125 kg/ha): 9.0
- CHEAL rating (CHENOPODIUM ALBUM, L. [5]; Rate 0.250 kg/ha): 9.0
- CHEAL rating (CHENOPODIUM ALBUM, L. [5]; Rate 0.500 kg/ha): 9.0
- Herbicidal effect rating, ORYSAT ([6]; 0.063 kg/ha): 1.0
- Herbicidal effect rating, ORYSAT ([6]; 0.125 kg/ha): 1.0
- Herbicidal effect rating, ORYSAT ([6]; 0.250 kg/ha): 2.0
- Herbicidal effect rating, ORYSAT ([6]; 0.500 kg/ha): 3.0
- ORYSAT herbicidal rating ([7]; Rate 0.125 kg/ha): 0.0
- ORYSAT herbicidal rating ([7]; Rate 0.250 kg/ha): 0.0
- ORYSAT herbicidal rating ([7]; Rate 0.500 kg/ha): 0.0
- TRZAWO herbicidal rating ([8]; Rate 0.125 kg/ha): 0.0
- TRZAWO herbicidal rating ([8]; Rate 0.250 kg/ha): 0.0
- TRZAWO herbicidal rating ([8]; Rate 0.500 kg/ha): 0.0
- AMBEL herbicidal rating ([9]; Rate 0.125 kg/ha): 0.0
- AMBEL herbicidal rating ([9]; Rate 0.250 kg/ha): 0.0
- AMBEL herbicidal rating ([9]; Rate 0.500 kg/ha): 0.0
- CASOB herbicidal rating (CASSIA OBTUSIFOLIA, L. [10]): 0.0
